Experiments:
[1] = system: myosin ATPase, Rabbit Psoas myofibrils; assay: Myofibril ATPase assay, rabbit psoas (skeletal) myofibrils; type: biochemical; conditions: Rabbit Psoas Prep pCa 25 GEOM_MEAN; for Rabbit Psoas EC25 (Y75 value): concentration required to reduce myosin ATP-ase activity by 25%
[2] = molecular target: T1, myosin ATPase, Porcine Ventricle myofibrils (Sus scrofa, UniProt P79293); assay: Myofibril ATPase assay, porcine ventricle myofibrils; type: biochemical, porcine (Yucatan minipigs); conditions: concentration required to reduce myosin ATP-ase activity by 25%; Porcine Ventricle Prep pCa 25 GEOM_MEAN
T1 construct: Myofibrils from porcine cardiac muscle was isolated from the left ventricle of Yucatan minipigs; tissue Exemplar Genetics; host or cells: left ventricle of Yucatan minipigs, myofibrils
T1 sequence (P79293 whole entry): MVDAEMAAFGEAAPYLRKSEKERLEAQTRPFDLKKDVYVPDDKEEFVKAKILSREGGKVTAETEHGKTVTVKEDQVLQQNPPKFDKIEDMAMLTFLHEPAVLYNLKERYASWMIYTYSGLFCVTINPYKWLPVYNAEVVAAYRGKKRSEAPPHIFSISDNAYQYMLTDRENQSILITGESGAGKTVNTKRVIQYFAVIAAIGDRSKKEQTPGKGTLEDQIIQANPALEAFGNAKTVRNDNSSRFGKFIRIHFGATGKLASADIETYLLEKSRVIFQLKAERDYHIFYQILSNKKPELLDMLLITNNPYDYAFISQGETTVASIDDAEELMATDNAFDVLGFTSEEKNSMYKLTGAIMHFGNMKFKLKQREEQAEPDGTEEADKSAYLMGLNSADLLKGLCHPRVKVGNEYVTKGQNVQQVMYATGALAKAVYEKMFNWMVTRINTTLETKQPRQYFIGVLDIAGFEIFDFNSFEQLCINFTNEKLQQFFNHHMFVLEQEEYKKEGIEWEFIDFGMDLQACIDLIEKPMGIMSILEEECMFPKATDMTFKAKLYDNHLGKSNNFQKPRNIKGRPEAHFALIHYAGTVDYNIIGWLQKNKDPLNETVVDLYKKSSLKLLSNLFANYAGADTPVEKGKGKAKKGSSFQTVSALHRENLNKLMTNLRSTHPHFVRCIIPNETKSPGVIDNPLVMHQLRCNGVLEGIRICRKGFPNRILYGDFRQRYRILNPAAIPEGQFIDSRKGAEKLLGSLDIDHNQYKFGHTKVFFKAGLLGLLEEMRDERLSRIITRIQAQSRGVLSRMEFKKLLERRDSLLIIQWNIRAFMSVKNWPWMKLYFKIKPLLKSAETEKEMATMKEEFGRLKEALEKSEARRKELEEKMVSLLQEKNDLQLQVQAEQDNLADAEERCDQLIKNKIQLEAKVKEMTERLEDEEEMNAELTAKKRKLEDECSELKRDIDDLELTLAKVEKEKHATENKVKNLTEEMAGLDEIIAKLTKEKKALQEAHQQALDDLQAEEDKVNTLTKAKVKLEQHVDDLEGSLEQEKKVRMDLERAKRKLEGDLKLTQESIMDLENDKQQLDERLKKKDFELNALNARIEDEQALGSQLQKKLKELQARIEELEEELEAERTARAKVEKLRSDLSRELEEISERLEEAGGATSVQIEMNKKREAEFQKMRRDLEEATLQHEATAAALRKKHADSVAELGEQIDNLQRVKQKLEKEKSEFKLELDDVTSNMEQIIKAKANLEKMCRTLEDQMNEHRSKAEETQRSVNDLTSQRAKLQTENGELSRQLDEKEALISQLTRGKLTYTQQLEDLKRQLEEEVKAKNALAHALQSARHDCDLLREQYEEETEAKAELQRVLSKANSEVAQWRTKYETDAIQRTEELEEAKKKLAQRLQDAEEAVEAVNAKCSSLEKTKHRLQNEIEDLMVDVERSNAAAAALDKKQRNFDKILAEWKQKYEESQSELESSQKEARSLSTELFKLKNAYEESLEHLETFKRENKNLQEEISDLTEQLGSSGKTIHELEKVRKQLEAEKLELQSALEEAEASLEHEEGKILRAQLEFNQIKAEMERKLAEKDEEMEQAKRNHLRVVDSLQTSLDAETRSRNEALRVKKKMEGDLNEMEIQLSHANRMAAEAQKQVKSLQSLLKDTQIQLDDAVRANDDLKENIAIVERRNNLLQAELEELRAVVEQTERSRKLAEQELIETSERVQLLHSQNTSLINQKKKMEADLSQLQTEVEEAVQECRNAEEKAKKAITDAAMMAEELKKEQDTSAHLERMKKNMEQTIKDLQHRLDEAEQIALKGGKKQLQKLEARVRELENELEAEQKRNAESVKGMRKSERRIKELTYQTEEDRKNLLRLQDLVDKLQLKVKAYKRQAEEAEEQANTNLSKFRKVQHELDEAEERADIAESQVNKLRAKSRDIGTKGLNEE
Outline: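 Myofibrils from Yucatan minipig left ventricle; ADP production coupled via PK-LDH to NADH loss, read kinetically at 340 nm every 1.5–2 min for 75 min in PIPES/MgCl2 pH 7.0 buffer. Slopes normalized to vehicle and fit to 4-parameter logistic; values are concentrations giving 75% (inhibition) or 125% (activation) of vehicle activity.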

[3] = system: myosin ATPase, Porcine Atria myofibrils; assay: Myofibril ATPase assay, porcine atria myofibrils; type: biochemical; conditions: concentration required to reduce myosin ATP-ase activity by 25%; Porcine Atria Prep pCa 25 GEOM_MEAN

Rabbit Psoas EC25 (Y75 value) [1] [µM]	Porcine Ventricle EC25 (Y75 value) [2] [µM]	Porcine Atria EC25 (Y75 value) [3] [µM]	Rabbit Psoas Y125 value (marked #) ([1]; concentration required to increase myosin ATP-ase activity by 25%)	SMILES
8.499	100	3.241		COc1nccc2[nH]c(=O)n(CC(=O)N[C@@H](C)c3ccc(F)cc3F)c(=O)c12 [Compound 65, (S)-N-(1-(2,4-difluorophenyl)ethyl)-2-(5-methoxy-2,4-dioxo-1,4-dihydropyrido[4,3-d]pyrimidin-3(2H)-yl)acetamide]
5.727	100	23.51		CC(NC(=O)Cn1c(=O)[nH]c2ccccc2c1=O)c1cc(F)ccc1F (stereo not drawn) [Compound 525, N-(1-(2,5-difluorophenyl)ethyl)-2-(2,4-dioxo-1,4-dihydroquinazolin-3(2H)-yl)acetamide]
9.2	100	2.081		C[C@H](NC(=O)Cn1c(=O)[nH]c2cc(F)ccc2c1=O)c1ccc(F)cc1F [Compound 143, (S)-N-(1-(2,4-difluorophenyl)ethyl)-2-(7-fluoro-2,4-dioxo-1,4-dihydroquinazolin-3(2H)-yl)acetamide]
5.422	100	79		C[C@H](NC(=O)Cn1c(=O)[nH]c2cnccc2c1=O)c1ccc(F)cc1F [Compound 301, (S)-N-(1-(2,4-difluorophenyl)ethyl)-2-(2,4-dioxo-1,4-dihydropyrido[3,4-d]pyrimidin-3(2H)-yl)acetamide]
0.036	0.205	0.083		C[C@H](NC(=O)Cn1c(=O)[nH]c2ccc(F)c(F)c2c1=O)c1ncc(C#N)cc1F (single isomer, unassigned) [Compound 22]
0.11	1.15	0.1312		C[C@H](NC(=O)Cn1c(=O)[nH]c2cccc(F)c2c1=O)c1ccc(F)cc1F [Compound 154, (S)-N-(1-(2,4-difluorophenyl)ethyl)-2-(5-fluoro-2,4-dioxo-1,4-dihydroquinazolin-3(2H)-yl)acetamide]
23	100	100		C[C@H](NC(=O)Cn1c(=O)[nH]c2cccnc2c1=O)c1ccc(F)cc1F [Compound 303, (S)-N-(1-(2,4-difluorophenyl)ethyl)-2-(2,4-dioxo-1,4-dihydropyrido[3,2-d]pyrimidin-3(2H)-yl)acetamide]
100	100	100		C[C@H](NC(=O)Cn1c(=O)[nH]c2cncnc2c1=O)c1ccc(F)cc1F [Compound 96, (S)-N-(1-(2,4-difluorophenyl)ethyl)-2-(2,4-dioxo-1,4-dihydropyrimido[5,4-d]pyrimidin-3(2H)-yl)acetamide]
100	100	100		CC(NC(=O)Cn1c(=O)[nH]c2ccccc2c1=O)c1cc(F)ccc1N(C)C (stereo not drawn) [Compound 518, N-(1-(2-(dimethylamino)-5-fluorophenyl)ethyl)-2-(2,4-dioxo-1,4-dihydroquinazolin-3(2H)-yl)acetamide]
35.849	100	2.118		C[C@H](NC(=O)C(CO)n1c(=O)[nH]c2ccccc2c1=O)c1ccc(F)cc1F (single isomer, unassigned) [Compound 511]
0.104	1.35	0.0803		C[C@H](NC(=O)[C@@H](C)n1c(=O)[nH]c2cccc(O)c2c1=O)c1ccc(F)cc1F (single isomer, unassigned) [Compound 36]

Continued, compound first:

SMILES	Rabbit Psoas EC25 (Y75 value) [1] [µM]	Porcine Ventricle EC25 (Y75 value) [2] [µM]	Porcine Atria EC25 (Y75 value) [3] [µM]	Rabbit Psoas Y125 value (marked #) ([1]; concentration required to increase myosin ATP-ase activity by 25%)
O=C(Cn1c(=O)[nH]c2ccccc2c1=O)N[C@@H]1CCCc2cc(F)cc(F)c21 (single isomer, unassigned) [Compound 57]	0.937	25.71	1.067	
CC(C)C[C@H](C(=O)N[C@@H](C)c1ncc(F)cc1F)n1c(=O)[nH]c2ccccc2c1=O (single isomer, unassigned) [Compound 28]	39.563	100	59.55	
C[C@H](NC(=O)[C@@H](Cc1ccccc1)n1c(=O)[nH]c2cccc(O)c2c1=O)c1ccc(F)cc1F [Compound 34, (R)-N-((S)-1-(2,4-difluorophenyl)ethyl)-2-(5-hydroxy-2,4-dioxo-1,4-dihydroquinazolin-3(2H)-yl)-3-phenylpropanamide]		45.37	48.85	0.85^#^ μM
C[C@@H](NC(=O)C1(n2c(=O)[nH]c3ccc(F)c(F)c3c2=O)CC1)c1ncc(C#N)cc1F (single isomer, unassigned) [Compound 3011]	4.77	13.07	0.42	
CC(NC(=O)Cn1c(=O)[nH]c2ccccc2c1=O)c1ccccc1Br (stereo not drawn) [Compound 524, N-(1-(2-bromophenyl)ethyl)-2-(2,4-dioxo-1,4-dihydroquinazolin-3(2H)-yl)acetamide]	11.968	100	73.54	
CC(NC(=O)Cn1c(=O)[nH]c2ccccc2c1=O)c1nccs1 (stereo not drawn) [Compound 601, 2-(2,4-dioxo-1,4-dihydroquinazolin-3(2H)-yl)-N-(1-(thiazol-2-yl)ethyl)acetamide]	100	100	100	
C[C@H](NC(=O)Cn1c(=O)[nH]c2ccccc2c1=O)c1cc(C(F)(F)F)cc(C(F)(F)F)c1 (single isomer, unassigned) [Compound 517]	100	100	100	
C[C@@H](NC(=O)Cn1c(=O)[nH]c2ccccc2c1=O)c1ccccc1 (single isomer, unassigned) [Compound 533]	100	100	100	
Cc1nccc2[nH]c(=O)n(CC(=O)N[C@H](C)c3ncc(C#N)cc3F)c(=O)c12 (single isomer, unassigned) [Compound 19]	21.6	100	15.77	
C[C@H](NC(=O)[C@@H](C)n1c(=O)[nH]c2ccc(F)c(F)c2c1=O)c1ccc(F)cc1F [Compound 37, (R)-2-(5,6-difluoro-2,4-dioxo-1,4-dihydroquinazolin-3(2H)-yl)-N-((S)-1-(2,4-difluorophenyl)ethyl)propanamide]	0.412	17.77	0.658	
Cc1c(F)ccc2[nH]c(=O)n(CC(=O)N[C@@H](C)c3ccc(C#N)cn3)c(=O)c12 (single isomer, unassigned) [Compound 3010]	1.59	1.90	1.97	
CC(C)[C@H](N)C(=O)OCn1c(=O)n(CC(=O)N[C@@H](C)c2ccc(F)cc2F)c(=O)c2cc(F)ccc21 [Compound 401, (3-(2-(((S)-1-(2,4-difluorophenyl)ethyl)amino)-2-oxoethyl)-6-fluoro-2,4-dioxo-3,4-dihydroquinazolin-1(2H)-yl)methyl L-valinate]	6.978	100	46.5	
CC(C)C(C(=O)N[C@@H](C)c1ccc(F)cc1F)n1c(=O)[nH]c2ccccc2c1=O (single isomer, unassigned) [Compound 513]	100	100	100	
CC(c1ccc(F)cc1F)N(C)C(=O)Cn1c(=O)[nH]c2ccccc2c1=O (stereo not drawn) [Compound 521, N-(1-(2,4-difluorophenyl)ethyl)-2-(2,4-dioxo-1,4-dihydroquinazolin-3(2H)-yl)-N-methylacetamide]	1.26	100	100	
COc1cccc(C(C)NC(=O)Cn2c(=O)[nH]c3ccccc3c2=O)c1 (stereo not drawn) [Compound 522, 2-(2,4-dioxo-1,4-dihydroquinazolin-3(2H)-yl)-N-(1-(3-methoxyphenyl)ethyl)acetamide]	100	100	100	
COCn1c(=O)n(CC(=O)N[C@@H](C)c2ccc(F)cc2F)c(=O)c2cc(F)ccc21 [Compound 402, (S)-N-(1-(2,4-difluorophenyl)ethyl)-2-(6-fluoro-1-(methoxymethyl)-2,4-dioxo-1,4-dihydroquinazolin-3(2H)-yl)acetamide]	100	100	100	
C[C@H](NC(=O)Cn1c(=O)[nH]c2ccccc2c1=O)c1ccc(O)nc1 (single isomer, unassigned) [Compound 98]	100	100	100	

Reference: patent US12559464B2, “Quinazolinone dione compounds and uses thereof” (Edgewise Therapeutics, Inc., priority 2023, dated 2026)
